Source: PubChem BioAssay AID256 (DTP/NCI, 2004)
Several values for one entry are separate records, joined by “and”; a condition that tells them apart may be missing. Identical values can stand only once. Toxic doses and inconclusive results are not listed. The calls were made as follows: active = survival T/C of 150% or more; inactive = T/C below 125% in these data. Non-standard residues stand in square brackets, D forms with d. Residues, ends and D or L forms follow the SMILES beside them. ξ: configuration not given here. *: point of attachment. ξF = NC(Cc1ccccc1)C(=O)O; Cbz = O=C(OCc1ccccc1)*

System: CD2F1 mice, L1210 leukemia ip, survival T/C
Assay: NCI In Vivo Anticancer Drug Screen. Data for tumor model L1210 Leukemia (intraperitoneal) in CD2F1 (CDF1) mice
Conditions: higher = longer survival
Protocol: The antitumor activity of compounds was measured in mice bearing transplantable tumors. Survival or tumor size were measured and the results are expressed as the measurement made in the treated group (T) divided by the measurement made in the vehicle treated control group (C). The tumor model used in this assay is L1210 Leukemia (intraperitoneal) in CD2F1 (CDF1) mice

[1] = endpoint: mean survival time, dose: 25.0 mg/kg/injection, schedule: Q01DX009 (ip), vehicle: saline with Tween-80
[2] = endpoint: mean survival time, dose: 50.0 mg/kg/injection, schedule: Q01DX009 (ip), vehicle: saline with Tween-80
[3] = endpoint: mean survival time, dose: 100.0 mg/kg/injection, schedule: Q01DX001 (ip), vehicle: saline with Tween-80
[4] = endpoint: mean survival time, dose: 5.0 mg/kg/injection, schedule: Q01DX001 (ip), vehicle: saline
[5] = endpoint: mean survival time, dose: 10.0 mg/kg/injection, schedule: Q01DX001 (ip), vehicle: saline
[6] = endpoint: mean survival time, dose: 20.0 mg/kg/injection, schedule: Q01DX001 (ip), vehicle: saline
[7] = endpoint: mean survival time, dose: 40.0 mg/kg/injection, schedule: Q01DX001 (ip), vehicle: saline
[8] = endpoint: mean survival time, dose: 100.0 mg/kg/injection, schedule: Q01DX001 (ip), vehicle: saline
[9] = endpoint: mean survival time, dose: 200.0 mg/kg/injection, schedule: Q01DX001 (ip), vehicle: saline
[10] = endpoint: mean survival time, dose: 100.0 mg/kg/injection, schedule: Q04DX003 (ip), vehicle: saline with Tween-80
[11] = endpoint: mean survival time, dose: 200.0 mg/kg/injection, schedule: Q04DX003 (ip), vehicle: saline with Tween-80
[12] = endpoint: mean survival time, dose: 400.0 mg/kg/injection, schedule: Q04DX003 (ip), vehicle: saline with Tween-80
[13] = endpoint: mean survival time, dose: 100.0 mg/kg/injection, schedule: Q04DX002 (ip), vehicle: saline
[14] = endpoint: mean survival time, dose: 200.0 mg/kg/injection, schedule: Q04DX002 (ip), vehicle: saline
[15] = endpoint: mean survival time, dose: 100.0 mg/kg/injection, schedule: Q04DX002 (ip), vehicle: saline with Tween-80
[16] = endpoint: mean survival time, dose: 200.0 mg/kg/injection, schedule: Q04DX002 (ip), vehicle: saline with Tween-80
[17] = endpoint: mean survival time, dose: 50.0 mg/kg/injection, schedule: Q01DX009 (ip), vehicle: other
[18] = endpoint: mean survival time, dose: 100.0 mg/kg/injection, schedule: Q01DX009 (ip), vehicle: other
[19] = endpoint: mean survival time, dose: 200.0 mg/kg/injection, schedule: Q01DX009 (ip), vehicle: other
[20] = endpoint: mean survival time, dose: 400.0 mg/kg/injection, schedule: Q01DX009 (ip), vehicle: other
[21] = endpoint: mean survival time, dose: 100.0 mg/kg/injection, schedule: Q01DX009 (ip), vehicle: saline with Tween-80
[22] = endpoint: mean survival time, dose: 200.0 mg/kg/injection, schedule: Q01DX009 (ip), vehicle: saline with Tween-80
[23] = endpoint: mean survival time, dose: 400.0 mg/kg/injection, schedule: Q01DX009 (ip), vehicle: saline with Tween-80

Measured: T/C

CC(=O)Oc1ccc2ccccc2c1
inactive: [1] 100 % of control | [2] 107 % of control | [3] 107 % of control

COC1OC(CSC#N)C2OC(C)(C)OC12 (centres undefined)
inactive: [4] 97 % of control | [5] 101 % of control | [6] 101 % of control | [7] 101 % of control

CCOC(=S)SCCSC
inactive: [8] 103 % of control | [9] 98 % of control

NC(=O)C(Cc1ccccc1)NC(=O)CNC(=O)CNC(=O)OCc1ccccc1 (stereo not drawn) (Cbz-Gly-Gly-[ξF]-NH2)
inactive: [10] 97 % of control | [11] 96 % of control | [12] 99 % of control

NC(=O)CCC(NC(=O)c1cnc2ccccc2n1)C(=O)O (centres undefined)
inactive: [8] 97 % of control | endpoint: mean survival time, dose: 100.0 mg/kg/injection, schedule: Q04DX003 (ip), vehicle: saline 105 % of control | [9] 97 % of control | endpoint: mean survival time, dose: 200.0 mg/kg/injection, schedule: Q04DX003 (ip), vehicle: saline 100 % of control | endpoint: mean survival time, dose: 400.0 mg/kg/injection, schedule: Q01DX001 (ip), vehicle: saline 95 % of control | endpoint: mean survival time, dose: 400.0 mg/kg/injection, schedule: Q04DX003 (ip), vehicle: saline 102 % of control

CC(N)CC(C)N (centres undefined)
inactive: [13] 105 % of control | [14] 109 % of control

c1ccc2c(c1)-c1nc3ccccc3cc1CC21CCCC1
inactive: [3] 98 % of control | endpoint: mean survival time, dose: 200.0 mg/kg/injection, schedule: Q01DX001 (ip), vehicle: saline with Tween-80 98 % of control | endpoint: mean survival time, dose: 400.0 mg/kg/injection, schedule: Q01DX001 (ip), vehicle: saline with Tween-80 93 % of control

CC(O)C1OC(n2cnc3c(=S)nc[nH]c32)C(O)C1O (centres undefined)
inactive: endpoint: median survival time, dose: 12.5 mg/kg/injection, schedule: Q01DX005 (ip), vehicle: distilled water + Tween-80 119 % of control and 107 % of control | endpoint: median survival time, dose: 25.0 mg/kg/injection, schedule: Q01DX005 (ip), vehicle: distilled water + Tween-80 116 % of control and 124 % of control

Nc1ccc2sccc2c1
inactive: [10] 103 % of control | [11] 102 % of control | [12] 101 % of control

COc1cccc(/C=C(\C(=O)O)c2cccc(OC)c2)c1
inactive: endpoint: mean survival time, dose: 50.0 mg/kg/injection, schedule: Q04DX002 (ip), vehicle: saline with Tween-80 89 % of control | [15] 86 % of control | [16] 104 % of control

Cn1cnc([N+](=O)[O-])c1Sc1ncnc2c1cnn2C1OC(CO)C(O)C1O (centres undefined)
inactive: endpoint: mean survival time, dose: 25.0 mg/kg/injection, schedule: Q01DX009 (ip), vehicle: other 95 % of control | [17] 114 % of control | [18] 97 % of control | [19] 108 % of control | [20] 117 % of control | endpoint: median survival time, dose: 10.0 mg/kg/injection, schedule: Q01DX005 (ip), vehicle: saline with Tween-80 96 % of control | endpoint: median survival time, dose: 20.0 mg/kg/injection, schedule: Q01DX005 (ip), vehicle: saline with Tween-80 103 % of control | endpoint: median survival time, dose: 40.0 mg/kg/injection, schedule: Q01DX005 (ip), vehicle: saline with Tween-80 103 % of control | endpoint: median survival time, dose: 80.0 mg/kg/injection, schedule: Q01DX005 (ip), vehicle: saline with Tween-80 102 % of control | endpoint: median survival time, dose: 160.0 mg/kg/injection, schedule: Q01DX005 (ip), vehicle: saline with Tween-80 91 % of control

CC1(OO)CC(=O)OO1 (centres undefined)
inactive: [4] 90 % of control | [5] 95 % of control | [6] 92 % of control

Cc1ccc2c(ccc3nc(N)nc(N)c32)c1
inactive: [4] 100 % of control | [5] 89 % of control | [6] 95 % of control | [7] 95 % of control

COc1ccc(O)cc1C
inactive: [18] 96 % of control | [19] 102 % of control | [20] 98 % of control

CC(=O)Nc1c[n+]([O-])cc2ccccc12
inactive: [21] 105 % of control | [10] 94 % of control | [22] 98 % of control | [11] 96 % of control | [23] 100 % of control | [12] 94 % of control

CC(/C=N/O)=N\O.CC(/C=N/O)=N\O.[Pd]
inactive: endpoint: mean survival time, dose: 1.56 mg/kg/injection, schedule: Q01DX009 (ip), vehicle: saline with Tween-80 98 % of control | endpoint: mean survival time, dose: 1.56 mg/kg/injection, schedule: Q04DX002 (ip), vehicle: saline with Tween-80 100 % of control | endpoint: mean survival time, dose: 3.13 mg/kg/injection, schedule: Q01DX009 (ip), vehicle: saline with Tween-80 95 % of control | endpoint: mean survival time, dose: 3.13 mg/kg/injection, schedule: Q04DX002 (ip), vehicle: saline with Tween-80 95 % of control | endpoint: mean survival time, dose: 6.25 mg/kg/injection, schedule: Q04DX002 (ip), vehicle: saline with Tween-80 88 % of control | endpoint: mean survival time, dose: 25.0 mg/kg/injection, schedule: Q04DX002 (ip), vehicle: saline with Tween-80 102 % of control

CC1=C/C(O)CC(=O)Cc2nc(co2)C(=O)N2CCC=C2C(=O)OC(C(C)C)C(C)/C=C\C(=O)NC/C=C\1 (centres undefined)
inactive: endpoint: mean survival time, dose: 1.0 micrograms/kg/injection, schedule: Q01DX009 (ip), vehicle: Klucel (hydroxypropylcellulose) (HPC) 98 % of control | endpoint: mean survival time, dose: 2.0 micrograms/kg/injection, schedule: Q01DX009 (ip), vehicle: Klucel (hydroxypropylcellulose) (HPC) 101 % of control | endpoint: mean survival time, dose: 4.0 micrograms/kg/injection, schedule: Q01DX009 (ip), vehicle: Klucel (hydroxypropylcellulose) (HPC) 97 % of control | endpoint: mean survival time, dose: 8.0 micrograms/kg/injection, schedule: Q01DX009 (ip), vehicle: Klucel (hydroxypropylcellulose) (HPC) 92 % of control | endpoint: median survival time, dose: 25.0 mg/kg/injection, schedule: Q01DX009 (ip), vehicle: Klucel (hydroxypropylcellulose) (HPC) 98 % of control | endpoint: median survival time, dose: 50.0 mg/kg/injection, schedule: Q01DX009 (ip), vehicle: Klucel (hydroxypropylcellulose) (HPC) 106 % of control | endpoint: median survival time, dose: 100.0 mg/kg/injection, schedule: Q01DX009 (ip), vehicle: Klucel (hydroxypropylcellulose) (HPC) 105 % of control | endpoint: median survival time, dose: 200.0 mg/kg/injection, schedule: Q01DX009 (ip), vehicle: Klucel (hydroxypropylcellulose) (HPC) 104 % of control

O=C(CCBr)NCc1ccccc1
inactive: [21] 97 % of control | [10] 92 % of control | [22] 98 % of control | [11] 98 % of control | [23] 97 % of control | [12] 95 % of control

CN1CCC(c2ccccc2)(c2ccccc2)OC1
inactive: [1] 106 % of control | [2] 98 % of control | [21] 110 % of control

Cc1ccccc1NC(=O)c1ccccc1
inactive: [21] 97 % of control | [22] 100 % of control | [23] 91 % of control

CCCCN(CCCC)CC(O)c1cc(-c2c(Cl)cccc2Cl)nc2c(Cl)cc(Cl)cc12 (centres undefined)
inactive: [10] 86 % of control | [11] 93 % of control | [12] 96 % of control

O=[N+]([O-])c1cccc2c(S(=O)(=O)O)cccc12
inactive: [10] 102 % of control | [11] 98 % of control

CNC(=S)NCc1ccc(C(=O)NC(C)C)cc1
inactive: [17] 97 % of control | [18] 95 % of control | [19] 100 % of control | [20] 91 % of control

O=C(O)C(Cl)C(Cl)c1ccccc1 (centres undefined)
inactive: [13] 90 % of control | [14] 94 % of control | endpoint: mean survival time, dose: 400.0 mg/kg/injection, schedule: Q04DX002 (ip), vehicle: saline 94 % of control

NC(N)=NC(N)=Nc1ccc(-c2ccc(N=C(N)N=C(N)N)cc2)cc1
inactive: endpoint: mean survival time, dose: 0.78 mg/kg/injection, schedule: Q01DX009 (ip), vehicle: saline 100 % of control | endpoint: mean survival time, dose: 1.56 mg/kg/injection, schedule: Q01DX009 (ip), vehicle: saline 105 % of control | endpoint: mean survival time, dose: 3.13 mg/kg/injection, schedule: Q01DX009 (ip), vehicle: saline 102 % of control | endpoint: mean survival time, dose: 6.25 mg/kg/injection, schedule: Q01DX009 (ip), vehicle: saline 111 % of control | endpoint: mean survival time, dose: 12.5 mg/kg/injection, schedule: Q01DX009 (ip), vehicle: saline 104 % of control | endpoint: mean survival time, dose: 25.0 mg/kg/injection, schedule: Q01DX009 (ip), vehicle: saline 111 % of control

Cc1ccc(S(=O)(=O)OCC2C3CC(c4ccccc43)C2COS(=O)(=O)c2ccc(C)cc2)cc1 (centres undefined)
inactive: [15] 102 % of control | [16] 111 % of control | endpoint: mean survival time, dose: 400.0 mg/kg/injection, schedule: Q04DX002 (ip), vehicle: saline with Tween-80 95 % of control
